# Measured values reported in publication PMC6461495 (ACS infectious diseases, 2019).
# System: synchronous late-stage P. falciparum iRBC
# Assay type: cell-based, Plasmodium falciparum CS2
# Conditions: late-stage iRBC, 1, 2, 5, 10, 15 or 20 μM, 24 h post-treatment, flow cytometry
substance,measurement,value
FAM-βAla-ILGST*LKG*AQQTSAFLK (sidechain bridge or staple) [JDD scramble],effect on parasite viability at any concentration tested,no effect on parasite viability
